Experiment [1] concerns the target Phosphatidylinositol 4,5-bisphosphate 3-kinase catalytic subunit beta isoform (Homo sapiens) (UniProt P42338). Briefly: Selectivity interaction (KinomeScan (DiscoverX)) EUB0000229b PIK3CB. The conditions noted are these: at 10 µM.
Experiment [2] deals with T1, Serine/threonine-protein kinase TNNI3K (Homo sapiens) (UniProt Q59H18).
T1 sequence (whole entry): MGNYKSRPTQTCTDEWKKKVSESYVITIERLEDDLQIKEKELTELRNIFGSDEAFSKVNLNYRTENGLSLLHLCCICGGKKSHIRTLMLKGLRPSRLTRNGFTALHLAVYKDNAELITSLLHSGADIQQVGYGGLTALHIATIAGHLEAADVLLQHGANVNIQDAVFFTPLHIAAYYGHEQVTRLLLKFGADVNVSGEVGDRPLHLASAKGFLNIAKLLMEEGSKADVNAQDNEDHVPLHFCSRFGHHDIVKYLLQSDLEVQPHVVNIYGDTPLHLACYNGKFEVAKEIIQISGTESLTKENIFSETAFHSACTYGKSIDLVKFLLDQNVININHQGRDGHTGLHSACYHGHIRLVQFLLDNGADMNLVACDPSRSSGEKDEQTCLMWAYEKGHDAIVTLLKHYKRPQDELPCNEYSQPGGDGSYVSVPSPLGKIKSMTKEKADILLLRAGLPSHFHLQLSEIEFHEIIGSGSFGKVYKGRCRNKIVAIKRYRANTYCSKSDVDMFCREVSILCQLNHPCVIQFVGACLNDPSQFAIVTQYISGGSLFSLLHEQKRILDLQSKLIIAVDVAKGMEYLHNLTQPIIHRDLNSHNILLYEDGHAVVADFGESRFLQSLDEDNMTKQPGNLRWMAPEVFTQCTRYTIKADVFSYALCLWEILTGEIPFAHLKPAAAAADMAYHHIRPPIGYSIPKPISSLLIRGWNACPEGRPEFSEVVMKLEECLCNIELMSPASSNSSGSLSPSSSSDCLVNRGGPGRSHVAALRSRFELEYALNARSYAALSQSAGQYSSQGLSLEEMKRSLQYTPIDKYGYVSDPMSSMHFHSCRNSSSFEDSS
As to the kind of experiment: Selectivity interaction (KinomeScan (DiscoverX)) EUB0000655a TNNI3K. The conditions noted are these: at 10 µM.

Experiment [3] relates to Tyrosine-protein kinase ABL1 (Homo sapiens), P00519 [T315I]. As to the kind of experiment: Selectivity interaction (KinomeScan (DiscoverX)) EUB0000655a ABL1. The conditions noted are these: at 10 µM.
In experiment [4] the target is T2, Cyclin-dependent kinase 11A (Homo sapiens) (UniProt Q9UQ88).
T2 sequence (whole entry): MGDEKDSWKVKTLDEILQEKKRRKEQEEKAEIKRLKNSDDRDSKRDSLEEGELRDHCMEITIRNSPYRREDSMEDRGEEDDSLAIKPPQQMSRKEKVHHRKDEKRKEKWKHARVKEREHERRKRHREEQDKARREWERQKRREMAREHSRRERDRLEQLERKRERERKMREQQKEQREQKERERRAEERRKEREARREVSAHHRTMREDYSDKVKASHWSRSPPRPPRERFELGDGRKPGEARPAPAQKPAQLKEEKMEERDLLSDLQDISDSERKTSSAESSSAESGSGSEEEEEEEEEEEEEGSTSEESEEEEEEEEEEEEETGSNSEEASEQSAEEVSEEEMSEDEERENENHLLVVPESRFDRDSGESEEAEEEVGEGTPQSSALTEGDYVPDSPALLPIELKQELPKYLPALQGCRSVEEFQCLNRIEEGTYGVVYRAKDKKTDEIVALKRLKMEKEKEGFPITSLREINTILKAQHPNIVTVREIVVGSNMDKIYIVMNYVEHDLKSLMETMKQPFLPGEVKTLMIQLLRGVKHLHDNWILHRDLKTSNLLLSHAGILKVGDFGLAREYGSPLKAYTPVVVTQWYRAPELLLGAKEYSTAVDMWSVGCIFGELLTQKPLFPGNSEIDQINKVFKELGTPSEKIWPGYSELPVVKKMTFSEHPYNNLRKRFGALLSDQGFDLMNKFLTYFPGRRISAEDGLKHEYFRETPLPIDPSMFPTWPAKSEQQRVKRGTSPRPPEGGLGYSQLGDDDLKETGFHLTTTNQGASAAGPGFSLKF
As to the kind of experiment: Selectivity interaction (ActivX KiNativ screen (kinase selectivity in THP-1 cell lysates)) EUB0000639a CDK11A. Format: subcellular. The conditions noted are these: lysate, at 0.01 µM.

The target of experiment [5] is Receptor tyrosine-protein kinase erbB-4 (Homo sapiens, UniProt Q15303). Briefly: Selectivity interaction (KinomeScan (DiscoverX)) EUB0001049a ERBB4. The conditions noted are these: at 1 µM.
The target in experiment [6] is Ribosomal protein S6 kinase alpha-2 (Homo sapiens) (UniProt Q15349). Briefly: Selectivity interaction (KinomeScan (DiscoverX)) EUB0001049a RPS6KA2. The conditions noted are these: at 1 µM.
For experiment [7], the target named is G protein-coupled receptor kinase 4 (Homo sapiens) (UniProt P32298). Briefly: Selectivity interaction (KinomeScan (DiscoverX)) EUB0001049a GRK4. The conditions noted are these: at 1 µM.
For experiment [8], the target named is Tyrosine-protein kinase Fyn (Homo sapiens) (UniProt P06241). As to the kind of experiment: Selectivity interaction (ProQinase) EUB0000171b FYN.
Experiment [9] addresses Platelet-derived growth factor receptor alpha (Homo sapiens, UniProt P16234). Briefly: Selectivity interaction (KinomeScan (DiscoverX)) EUB0000092b PDGFRA. The conditions noted are these: at 10 µM.
The target in experiment [10] is T3, Cytoplasmic tyrosine-protein kinase BMX (Homo sapiens) (UniProt P51813).
T3 sequence (whole entry): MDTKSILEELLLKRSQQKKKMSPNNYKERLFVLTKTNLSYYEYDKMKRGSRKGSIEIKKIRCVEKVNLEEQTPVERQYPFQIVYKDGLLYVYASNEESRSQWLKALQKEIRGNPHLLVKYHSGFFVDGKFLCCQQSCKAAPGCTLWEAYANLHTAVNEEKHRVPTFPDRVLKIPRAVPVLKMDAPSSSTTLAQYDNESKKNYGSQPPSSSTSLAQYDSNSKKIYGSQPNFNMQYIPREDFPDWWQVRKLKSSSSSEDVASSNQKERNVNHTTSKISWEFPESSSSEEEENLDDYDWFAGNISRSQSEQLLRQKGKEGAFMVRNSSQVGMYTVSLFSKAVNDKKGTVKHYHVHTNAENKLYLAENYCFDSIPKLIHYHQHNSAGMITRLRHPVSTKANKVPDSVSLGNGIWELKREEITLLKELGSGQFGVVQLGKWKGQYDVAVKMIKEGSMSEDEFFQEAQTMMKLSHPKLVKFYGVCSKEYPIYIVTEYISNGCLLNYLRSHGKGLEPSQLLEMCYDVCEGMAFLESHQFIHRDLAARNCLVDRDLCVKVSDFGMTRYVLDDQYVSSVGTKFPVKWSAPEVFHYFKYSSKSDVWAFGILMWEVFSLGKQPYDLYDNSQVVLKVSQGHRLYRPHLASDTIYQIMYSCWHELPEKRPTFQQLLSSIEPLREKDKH
Briefly: Selectivity interaction (Kinase panel (DSF assay)) EUB0001559a BMX.

Molecules are shown by their SMILES.

Sequence of Tyrosine-protein kinase Fyn (Homo sapiens) (P06241 2-537 limits assumed): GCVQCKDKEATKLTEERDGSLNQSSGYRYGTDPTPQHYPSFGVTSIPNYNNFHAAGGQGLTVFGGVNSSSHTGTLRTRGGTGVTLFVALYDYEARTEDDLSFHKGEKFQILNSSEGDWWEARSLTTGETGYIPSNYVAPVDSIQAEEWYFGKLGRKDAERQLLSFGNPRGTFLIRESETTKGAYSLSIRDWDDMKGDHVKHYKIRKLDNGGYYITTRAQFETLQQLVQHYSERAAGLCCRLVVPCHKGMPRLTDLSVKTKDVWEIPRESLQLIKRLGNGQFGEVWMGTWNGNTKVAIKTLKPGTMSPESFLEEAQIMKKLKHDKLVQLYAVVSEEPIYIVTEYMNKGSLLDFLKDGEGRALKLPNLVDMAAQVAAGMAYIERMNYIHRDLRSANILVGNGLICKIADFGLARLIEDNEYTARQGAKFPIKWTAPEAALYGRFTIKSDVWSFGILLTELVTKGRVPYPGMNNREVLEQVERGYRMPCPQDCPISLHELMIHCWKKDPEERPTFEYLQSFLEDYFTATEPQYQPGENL
Sequence of Receptor tyrosine-protein kinase erbB-4 (Q15303 whole entry): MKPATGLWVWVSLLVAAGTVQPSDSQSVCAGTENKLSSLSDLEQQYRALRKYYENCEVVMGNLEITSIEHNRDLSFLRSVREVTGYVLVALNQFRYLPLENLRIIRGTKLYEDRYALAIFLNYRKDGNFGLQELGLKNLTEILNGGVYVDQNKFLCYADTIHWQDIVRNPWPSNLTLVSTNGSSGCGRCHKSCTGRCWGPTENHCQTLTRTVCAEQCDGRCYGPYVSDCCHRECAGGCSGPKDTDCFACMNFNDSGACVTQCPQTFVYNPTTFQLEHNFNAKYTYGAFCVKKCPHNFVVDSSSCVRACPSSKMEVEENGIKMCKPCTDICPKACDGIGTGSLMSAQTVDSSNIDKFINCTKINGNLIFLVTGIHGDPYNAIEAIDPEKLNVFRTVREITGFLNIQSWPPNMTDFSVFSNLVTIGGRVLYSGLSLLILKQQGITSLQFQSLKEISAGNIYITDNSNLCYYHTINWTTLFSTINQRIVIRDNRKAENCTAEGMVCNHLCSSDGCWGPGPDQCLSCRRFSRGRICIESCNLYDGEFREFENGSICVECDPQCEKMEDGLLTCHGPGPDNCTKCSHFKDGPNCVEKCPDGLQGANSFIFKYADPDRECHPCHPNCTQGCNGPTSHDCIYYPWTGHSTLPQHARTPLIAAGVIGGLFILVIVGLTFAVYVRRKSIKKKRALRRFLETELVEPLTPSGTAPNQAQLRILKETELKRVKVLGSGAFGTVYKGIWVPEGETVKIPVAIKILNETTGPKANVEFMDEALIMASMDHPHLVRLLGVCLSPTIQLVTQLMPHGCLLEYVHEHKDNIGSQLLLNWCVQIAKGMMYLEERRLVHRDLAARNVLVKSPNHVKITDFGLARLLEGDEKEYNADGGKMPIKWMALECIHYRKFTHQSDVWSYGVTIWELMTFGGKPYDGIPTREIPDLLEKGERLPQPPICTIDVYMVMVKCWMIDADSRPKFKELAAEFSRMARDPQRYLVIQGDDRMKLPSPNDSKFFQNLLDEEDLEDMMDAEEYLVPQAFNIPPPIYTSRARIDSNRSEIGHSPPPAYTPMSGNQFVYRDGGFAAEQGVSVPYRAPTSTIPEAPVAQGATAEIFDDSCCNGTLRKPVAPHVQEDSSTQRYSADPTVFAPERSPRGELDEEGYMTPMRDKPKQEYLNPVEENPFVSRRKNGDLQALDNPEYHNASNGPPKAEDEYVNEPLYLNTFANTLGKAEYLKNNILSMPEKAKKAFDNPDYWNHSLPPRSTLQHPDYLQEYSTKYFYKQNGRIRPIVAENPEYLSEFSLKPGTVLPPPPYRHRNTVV
Sequence of G protein-coupled receptor kinase 4 (Homo sapiens) (P32298 whole entry, looked up): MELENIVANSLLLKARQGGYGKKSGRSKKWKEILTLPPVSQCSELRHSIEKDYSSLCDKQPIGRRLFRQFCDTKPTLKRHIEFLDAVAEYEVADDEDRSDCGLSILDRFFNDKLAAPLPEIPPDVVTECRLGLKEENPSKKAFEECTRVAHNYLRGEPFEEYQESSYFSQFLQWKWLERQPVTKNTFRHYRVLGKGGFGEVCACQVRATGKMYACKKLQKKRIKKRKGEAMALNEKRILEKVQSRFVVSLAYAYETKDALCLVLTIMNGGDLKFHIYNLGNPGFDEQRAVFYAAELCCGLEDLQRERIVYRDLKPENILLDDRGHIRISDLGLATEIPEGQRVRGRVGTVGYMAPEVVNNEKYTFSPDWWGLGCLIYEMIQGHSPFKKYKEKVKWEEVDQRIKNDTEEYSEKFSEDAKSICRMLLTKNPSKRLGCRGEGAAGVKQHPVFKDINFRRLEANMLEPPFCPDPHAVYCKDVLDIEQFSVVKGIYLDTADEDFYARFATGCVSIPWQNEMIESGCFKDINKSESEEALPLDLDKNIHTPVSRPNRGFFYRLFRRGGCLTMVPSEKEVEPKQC
Sequence of Ribosomal protein S6 kinase alpha-2 (Homo sapiens) (Q15349 whole entry): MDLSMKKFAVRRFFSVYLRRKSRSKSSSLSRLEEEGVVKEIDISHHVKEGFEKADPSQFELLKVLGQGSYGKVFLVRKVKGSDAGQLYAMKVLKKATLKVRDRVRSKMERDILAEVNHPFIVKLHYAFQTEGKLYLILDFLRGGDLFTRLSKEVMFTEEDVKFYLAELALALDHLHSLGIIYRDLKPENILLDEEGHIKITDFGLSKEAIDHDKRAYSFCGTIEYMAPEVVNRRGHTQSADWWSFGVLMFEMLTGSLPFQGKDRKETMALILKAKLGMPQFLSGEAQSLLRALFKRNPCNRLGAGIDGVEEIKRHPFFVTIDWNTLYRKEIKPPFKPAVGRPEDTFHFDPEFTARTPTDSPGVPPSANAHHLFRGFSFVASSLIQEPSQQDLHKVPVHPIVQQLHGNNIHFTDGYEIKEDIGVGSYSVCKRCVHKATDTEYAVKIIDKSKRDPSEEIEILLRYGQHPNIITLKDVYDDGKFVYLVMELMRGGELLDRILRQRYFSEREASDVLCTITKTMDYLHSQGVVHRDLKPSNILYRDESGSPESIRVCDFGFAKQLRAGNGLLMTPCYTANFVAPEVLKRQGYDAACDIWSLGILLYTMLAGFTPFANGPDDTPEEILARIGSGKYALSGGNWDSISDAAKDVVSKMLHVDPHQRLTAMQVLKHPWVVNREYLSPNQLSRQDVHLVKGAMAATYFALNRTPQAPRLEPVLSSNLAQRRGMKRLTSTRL
Sequence of Platelet-derived growth factor receptor alpha (P16234 whole entry): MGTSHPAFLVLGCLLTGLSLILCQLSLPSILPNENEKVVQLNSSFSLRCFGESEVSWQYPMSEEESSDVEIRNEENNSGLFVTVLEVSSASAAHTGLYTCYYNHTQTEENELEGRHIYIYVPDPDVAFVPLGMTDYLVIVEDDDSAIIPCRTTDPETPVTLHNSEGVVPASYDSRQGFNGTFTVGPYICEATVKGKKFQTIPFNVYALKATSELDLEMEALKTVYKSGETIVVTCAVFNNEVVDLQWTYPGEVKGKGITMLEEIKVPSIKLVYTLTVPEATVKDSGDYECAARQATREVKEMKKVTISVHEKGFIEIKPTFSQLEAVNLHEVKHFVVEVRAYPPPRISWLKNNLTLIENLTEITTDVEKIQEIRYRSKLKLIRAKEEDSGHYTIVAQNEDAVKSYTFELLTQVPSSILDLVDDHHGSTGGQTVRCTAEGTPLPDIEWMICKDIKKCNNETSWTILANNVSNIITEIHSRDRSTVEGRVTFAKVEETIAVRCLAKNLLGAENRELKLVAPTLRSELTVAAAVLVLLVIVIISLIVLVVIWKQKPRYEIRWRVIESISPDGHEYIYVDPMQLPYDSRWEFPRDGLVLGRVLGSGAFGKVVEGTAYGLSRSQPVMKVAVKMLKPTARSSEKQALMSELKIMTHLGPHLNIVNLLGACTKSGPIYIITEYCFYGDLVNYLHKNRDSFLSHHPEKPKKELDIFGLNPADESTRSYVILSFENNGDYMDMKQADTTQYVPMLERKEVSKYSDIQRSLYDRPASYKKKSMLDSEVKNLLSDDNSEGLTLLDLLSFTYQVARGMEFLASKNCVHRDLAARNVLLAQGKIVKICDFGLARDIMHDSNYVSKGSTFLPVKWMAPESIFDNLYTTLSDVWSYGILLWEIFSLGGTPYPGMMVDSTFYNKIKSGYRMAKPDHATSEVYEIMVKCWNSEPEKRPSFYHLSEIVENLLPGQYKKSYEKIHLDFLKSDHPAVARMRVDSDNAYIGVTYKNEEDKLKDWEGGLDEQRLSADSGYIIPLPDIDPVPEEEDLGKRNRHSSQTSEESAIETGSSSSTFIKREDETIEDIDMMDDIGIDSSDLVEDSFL

As to `COc1cc(N(C)c2ccnc3ccc(C(F)(F)F)cc23)cc(OC)c1OC`, the % binding in experiment [1] was 63%. Take `CN(C)CCOc1ccc(-c2nc(-c3ccncc3)c(-c3ccc4c(c3)CC/C4=N\O)[nH]2)cc1`: the results for the % of control in experiment [2] and in experiment [3] were 76% and 5.4%, respectively. In experiment [4], `CC[C@@H]1[C@H](F)C(=O)N[C@@H]1COc1nccc2cc(C(N)=O)c(OC)cc12` [ZIMLOVISERTIB] showed a % of inhibition of 11.4%. As to `COc1cc(Nc2nc(C)cc(-c3cnn4nc(OC)ccc34)n2)cc(C(F)(F)F)c1`, the figures for the % of control in experiment [5], in experiment [6] and in experiment [7] were 90%, 90% and 85%, respectively. Turning to `C=CC(=O)Nc1cccc(C(=O)Nc2ccc(Nc3cc(-c4[nH]c(SC)nc4C)ccn3)cc2)c1`, the % of control was determined as 101% in [8] (at 1 µM) and 100% in [8] (at 5 µM). The compound `CCC(=O)N1CCN(c2ccc(-n3c(=O)ccc4cnc5ccc(-c6cnc7ccccc7c6)cc5c43)cc2C(F)(F)F)CC1` returned a % of control in experiment [9] of 63%. `CN(C(=O)c1cnn2cccnc12)c1cc2c(cc1N1CCOCC1)C(=O)N(C[C@@H](F)C(C)(C)O)C2` yielded a dTM in [10] of 0.1 K.

The values above are taken from ChEMBL document CHEMBL5465560, “Selectivity Literature for EUbOPEN Chemogenomic Library” (2024).
